We go through 52 molecules from PubChem BioAssay AID1996.

By solubility (kinetic) is commonly meant the concentration staying in solution when a stock, usually in DMSO, is diluted into the medium.

Converted amounts (≈) assume the structure as drawn.

The conditions of the data set: buffer; pH 7.4; 200.0 µM.
As to `Cc1ccc(C(=O)NCc2ccco2)cc1`, the solubility (kinetic) was above 32.3 µg/mL.

Take `O=[N+]([O-])/C=C1\CCCCCN1`: the solubility (kinetic) is above 23.4 µg/mL.

For the molecule `O=C1COc2ccc(C(=O)COc3ccc([N+](=O)[O-])cc3)cc2N1`, the solubility (kinetic) is 0.8 µg/mL (≈ 2.44 µM).

`O=C(O)CCCCCNC(=O)/C(=C\c1ccco1)NC(=O)c1ccco1`: the solubility (kinetic) is 44.3 µg/mL (≈ 123 µM).

In the case of `O=C(Nc1ccc(Cl)cn1)C1CC1`, the kinetic solubility is above 29.5 µg/mL.

`COc1ccc(C(=O)c2ccc(-c3ccc(OC)cc3)nc2)cc1` came in with a kinetic solubility below 0.7 µg/mL.

`O=C(Nc1ccncc1)Nc1cccc(Cl)c1` yielded a kinetic solubility of 35.9 µg/mL (≈ 145 µM).

Consider `O=C(Cc1ccsc1)Nc1ccc2c(c1)OCO2`, for which the kinetic solubility is above 39.2 µg/mL.

For `Oc1ccccc1-c1nc(NCc2ccccc2)c2ccccc2n1`, the solubility (kinetic) was below 0.2 µg/mL.

In turn, `Cc1ccccc1OC(C)C(=O)NCCC1=CCCCC1` (configuration not stated) gave a solubility (kinetic) of 19.6 µg/mL (≈ 68.2 µM).

`Cc1ccc(Nc2cc(C)nc(-c3ccccc3)n2)cc1` registered a kinetic solubility of 5.2 µg/mL (≈ 18.9 µM).

As for `Cc1cccc(NC(=O)C(=O)NCCCN2CCOCC2)c1`, the kinetic solubility turned out to be 41.9 µg/mL (≈ 137 µM).

`Cc1ccc(N2CCN(C(=O)NC3CCCCC3)CC2C)cc1` (configuration not stated) registered a kinetic solubility above 47.3 µg/mL.

Take `CCCCN(C(=O)C1=NN(c2ccccc2)C(=O)CC1)c1c(N)n(CCC)c(=O)[nH]c1=O`: the solubility (kinetic) was above 66.1 µg/mL.

As to `CN(c1ccc(C(=O)N2CCCCC2)cc1)S(=O)(=O)c1cccs1`, the kinetic solubility came to 52.7 µg/mL (≈ 145 µM).

Regarding `Cc1[nH]c(=O)c(C#N)c(C)c1CSc1ncccn1`, the solubility (kinetic) was above 40.8 µg/mL.

Molecule `CC(=O)Nc1ccc2c(c1)N(C(C)=O)c1ccccc1CC2` displayed a kinetic solubility above 44.2 µg/mL.

`CC1=C(C)C(OCCBr)N(c2cc(O)c(Cl)cc2F)C1=O` (configuration not stated): the solubility (kinetic) is above 56.8 µg/mL.

In turn, `COc1ccc(CN(C)Cc2c(O)ccc3ccccc23)cc1` showed a solubility (kinetic) of 16.7 µg/mL (≈ 54.3 µM).

In turn, `COc1ccc(OCC(=O)NCCCCCCNC(=O)COc2ccc(OC)cc2)cc1` showed a kinetic solubility of 2.6 µg/mL (≈ 5.85 µM).

The molecule `Cc1ccccc1CNC(=O)C(=O)Nc1nccs1` displayed a solubility (kinetic) of 1.2 µg/mL (≈ 4.36 µM).

Take `CC1CCN(C(=S)NC(=O)c2ccc(F)cc2)CC1`: the solubility (kinetic) was above 42.1 µg/mL.

`COCCNC(=O)C(NC(=O)C1CCCCC1)C(C)C` (configuration not stated): the kinetic solubility is above 42.7 µg/mL.

In turn, `c1ccc(N2CCN(C3CC4CCC3C4)CC2)cc1` (configuration not stated) had a solubility (kinetic) of 27.1 µg/mL (≈ 106 µM).

The molecule `Cc1ccc(C)c(S(=O)(=O)NCCCc2ccccc2)c1` registered a solubility (kinetic) of 14.2 µg/mL (≈ 46.8 µM).

Consider `O=C(COc1ccc(C(=O)O)cc1)Nc1cccc(C(F)(F)F)c1`, for which the kinetic solubility is above 50.9 µg/mL.

With `NS(=O)(=O)c1ccc(-n2cccc2C=O)cc1`, the solubility (kinetic) was 36.1 µg/mL (≈ 144 µM).

`COc1ccc(C2CC(=O)C(C=NCC(C)C)=C(O)C2)cc1` (configuration not stated): the solubility (kinetic) was determined as 40.6 µg/mL (≈ 135 µM).

On to `CCc1cc(=O)oc2cc(OCC(=O)N3CCC[C@H]3C(=O)O)ccc12`, for which the kinetic solubility was above 51.8 µg/mL.

In turn, `CC(C)c1ccccc1NC(=S)NCC1(N(C)C)CCCCC1` registered a solubility (kinetic) of 45.9 µg/mL (≈ 138 µM).

`O=C(/C=C/c1ccccc1[N+](=O)[O-])OC1CCCCC1=O` (configuration not stated) had a solubility (kinetic) of 4.5 µg/mL (≈ 15.6 µM).

For `CNC(=S)Nc1ccc(C)c(NC(=S)NC)c1`, the solubility (kinetic) was above 40.3 µg/mL.

Regarding `CSc1ccccc1NC(=O)COC(=O)CCC(=O)c1ccc(F)cc1`, the kinetic solubility is above 56.3 µg/mL.

Turning to `O=C(Nc1ccc(-c2cnco2)cc1)c1ccccc1`, the kinetic solubility was below 0.3 µg/mL.

With `COc1ccc(CCC(C)N2CCOCC2)cc1` (configuration not stated), the kinetic solubility was 31.9 µg/mL (≈ 128 µM).

In the case of `CN(C)/C=C/C(=O)c1ccc([N+](=O)[O-])c(CS(=O)(=O)c2ccccc2)c1`, the kinetic solubility is above 56.2 µg/mL.

In the case of `CC(C)CC(=O)N1CCN(Cc2ccccc2Br)CC1`, the kinetic solubility was determined as 42 µg/mL (≈ 124 µM).

The molecule `Cc1cc(C(=O)NC2CC2)c2ccccc2n1` displayed a kinetic solubility of 29.5 µg/mL (≈ 130 µM).

Molecule `CSc1ncccc1C(=O)OCC(=O)Nc1nc(C)c(Cl)cc1Cl` displayed a solubility (kinetic) of 10 µg/mL (≈ 25.9 µM).

`CN1C(=O)S/C(=C/c2ccc(OCc3cccc(C(=O)O)c3)cc2)C1=O` had a solubility (kinetic) of 10.6 µg/mL (≈ 28.7 µM).

Molecule `CC1C(=O)N2CCCc3cc(S(=O)(=O)N(C)CCC#N)cc1c32` (configuration not stated) had a solubility (kinetic) above 50 µg/mL.

In turn, `O=C(Nc1cccc(S(=O)(=O)N2CCOCC2)c1)c1ccc(=O)[nH]c1` yielded a solubility (kinetic) above 54.5 µg/mL.

`COc1cc(C(C)=O)ccc1OCC(=O)Nc1cc(C)on1` yielded a solubility (kinetic) of 8.3 µg/mL (≈ 27.3 µM).

For `O=C(Cc1ccsc1)Nc1cc(F)ccc1F`, the kinetic solubility was above 38 µg/mL.

Turning to `Cc1ccc(C)c(NC(=O)CN(C)C(=O)c2ccncc2)c1`, the solubility (kinetic) worked out at 39.1 µg/mL (≈ 131 µM).

`CCCCOc1ccc(C(=O)OCC(=O)N2CCCCCC2)cc1` returned a kinetic solubility of 8.4 µg/mL (≈ 25.2 µM).

`O=C(NN1CCOCC1)c1ccc(Cl)c([N+](=O)[O-])c1` registered a kinetic solubility above 42.9 µg/mL.

For the molecule `O=C(CC12CC3CC(CC(C3)C1)C2)NC1CC1`, the solubility (kinetic) amounted to 30 µg/mL (≈ 129 µM).

In the case of `CCOC(=O)C1=C(COC(=O)c2ccco2)NC(=O)NC1CC` (configuration not stated), the solubility (kinetic) is above 48.3 µg/mL.

For the molecule `CCn1c(/C=C/c2ccccc2C)nc2ccccc2c1=O`, the solubility (kinetic) was found to be 3.3 µg/mL (≈ 11.4 µM).

As to `CSCCC(NS(=O)(=O)c1ccccc1F)C(=O)NCC(c1ccco1)N(C)C` (configuration not stated), the solubility (kinetic) is above 66.5 µg/mL.

`CC(C(=O)O)N1CCCCC1.Cl` (configuration not stated) gave a solubility (kinetic) of 24.3 µg/mL.
